compound,measurement,setting,value
Cc1cc(=O)oc2cc(N)ccc12,solubility (mole fraction),"in DMF, 278.15 K",0.0579
same,solubility (mole fraction),"in DMF, 283.15 K",0.0725
same,solubility (mole fraction),"in DMF, 288.15 K",0.0902
same,solubility (mole fraction),"in DMF, 293.15 K",0.108
same,solubility (mole fraction),"in DMF, 298.15 K",0.131
same,solubility (mole fraction),"in DMF, 303.15 K",0.156
same,solubility (mole fraction),"in DMF, 308.15 K",0.189
same,solubility (mole fraction),"in DMF, 313.15 K",0.219
same,solubility (mole fraction),"in DMF, 318.15 K",0.251
same,solubility (mole fraction),"in DMF, 323.15 K",0.292
same,solubility (mole fraction),"in ethanol, 278.15 K",0.000941
same,solubility (mole fraction),"in ethanol, 283.15 K",0.00101
same,solubility (mole fraction),"in ethanol, 288.15 K",0.00117
same,solubility (mole fraction),"in ethanol, 293.15 K",0.00123
same,solubility (mole fraction),"in ethanol, 298.15 K",0.00134
same,solubility (mole fraction),"in ethanol, 303.15 K",0.00161
same,solubility (mole fraction),"in ethanol, 308.15 K",0.00177
same,solubility (mole fraction),"in ethanol, 313.15 K",0.00214
same,solubility (mole fraction),"in ethanol, 318.15 K",0.00233
same,solubility (mole fraction),"in ethanol, 323.15 K",0.00262
same,solubility (mole fraction),"in ethylene glycol, 278.15 K",0.000384
same,solubility (mole fraction),"in ethylene glycol, 283.15 K",0.000432
same,solubility (mole fraction),"in ethylene glycol, 288.15 K",0.000531
same,solubility (mole fraction),"in ethylene glycol, 293.15 K",0.000663
same,solubility (mole fraction),"in ethylene glycol, 298.15 K",0.000812
same,solubility (mole fraction),"in ethylene glycol, 303.15 K",0.000974
same,solubility (mole fraction),"in ethylene glycol, 308.15 K",0.00112
same,solubility (mole fraction),"in ethylene glycol, 313.15 K",0.0013
same,solubility (mole fraction),"in ethylene glycol, 318.15 K",0.00145
same,solubility (mole fraction),"in ethylene glycol, 323.15 K",0.00163
same,solubility (mole fraction),"in isopropanol, 278.15 K",0.00103
same,solubility (mole fraction),"in isopropanol, 283.15 K",0.00114
same,solubility (mole fraction),"in isopropanol, 288.15 K",0.00127
same,solubility (mole fraction),"in isopropanol, 293.15 K",0.00152
same,solubility (mole fraction),"in isopropanol, 298.15 K",0.00173
same,solubility (mole fraction),"in isopropanol, 303.15 K",0.00188
same,solubility (mole fraction),"in isopropanol, 308.15 K",0.00208
same,solubility (mole fraction),"in isopropanol, 313.15 K",0.00237
same,solubility (mole fraction),"in isopropanol, 318.15 K",0.00261
same,solubility (mole fraction),"in isopropanol, 323.15 K",0.00294
same,solubility (mole fraction),"in water, 278.15 K",1.07e-05
same,solubility (mole fraction),"in water, 283.15 K",1.38e-05
same,solubility (mole fraction),"in water, 288.15 K",1.74e-05
same,solubility (mole fraction),"in water, 293.15 K",2.18e-05
same,solubility (mole fraction),"in water, 298.15 K",2.75e-05
same,solubility (mole fraction),"in water, 303.15 K",3.41e-05
same,solubility (mole fraction),"in water, 308.15 K",4.18e-05
same,solubility (mole fraction),"in water, 313.15 K",5.14e-05
same,solubility (mole fraction),"in water, 318.15 K",6.27e-05
same,solubility (mole fraction),"in water, 323.15 K",7.57e-05

# Reference: BigSolDB 2.1
